Test results from patent publication US11071300B2, “Pesticidally active pyrazole derivatives” (SYNGENTA PARTICIPATIONS AG, priority 2017, dated 2021).

Assays:
Type in all cases: in vivo
Tetranychus urticae = Tetranychus urticae (two-spotted spider mite) leaf disc test; conditions: foliar, 192 h, read-out: control (mortality on mixed population, mobile stages)
Experimental: Tetranychus urticae (Two-Spotted Spider Mite):
Bean leaf discs on agar in 24-well microtiter plates were sprayed with aqueous test solutions prepared from 10′000 ppm DMSO stock solutions. After drying the leaf discs were infested with a mite population of mixed ages. The samples were assessed for mortality on mixed population (mobile stages) 8 days after infestation.

Thrips tabaci = Thrips tabaci (onion thrips) leaf disc test; conditions: foliar, 144 h, read-out: control (mortality)
Experimental: Thrips tabaci (Onion Thrips):
Sunflower leaf discs were placed on agar in 24-well microtiter plates and sprayed with aqueous test solutions prepared from 10′000 ppm DMSO stock solutions. After drying the leaf discs were infested with a thrips population of mixed ages. The samples were assessed for mortality 6 days after infestation.

Plutella xylostella = Plutella xylostella (diamond back moth) artificial diet test; conditions: 120 h, read-out: control (mortality and growth inhibition)
Experimental: Plutella xylostella (Diamond Back Moth):
(§1) 24-well microtiter plates with artificial diet were treated with aqueous test solutions prepared from 10′000 ppm DMSO stock solutions by pipetting. After drying, the plates were infested with L2 larvae (10 to 15 per well). The samples were assessed for mortality and growth inhibition in comparison to untreated samples 5 days after infestation.

Myzus persicae = Myzus persicae (green peach aphid) leaf disc test; conditions: foliar, 144 h, read-out: control (mortality)
Experimental: Myzus persicae (Green Peach Aphid):
Sunflower leaf discs were placed on agar in a 24-well microtiter plate and sprayed with test solutions at an application rate of 200 ppm. After drying, the leaf discs were infested with an aphid population of mixed ages. After an incubation period of 6 DAT, samples were checked for mortality.

Euschistus heros = Euschistus heros (neotropical brown stink bug) soybean leaf test; conditions: 120 h, read-out: control (mortality and growth inhibition)
Experimental: Euschistus heros (Neotropical Brown Stink Bug):
Soybean leaves on agar in 24-well microtiter plates were sprayed with aqueous test solutions prepared from 10′000 ppm DMSO stock solutions. After drying the leaves were infested with N2 nymphs. The samples were assessed for mortality and growth inhibition in comparison to untreated samples 5 days after infestation.

Diabrotica Balteata = assay: Diabrotica balteata (corn root worm) maize sprout test; conditions: 96 h, read-out: control (mortality and growth inhibition)
Experimental: Diabrotica Balteata, (Corn Root Worm)
as §1, with “Maize sprouts, placed on an agar layer in 24-well” for “24-well”, “plates” for “plates with artificial diet”, “spraying.” for “pipetting.”, “(6” for “(10”, “10” for “15”, “4” for “5”

Spodoptera littoralis = Spodoptera littoralis (Egyptian cotton leaf worm) leaf disc test; conditions: foliar, 72 h, application rate 200 ppm, cotton leaf discs sprayed, L1 larvae, 3 days after infestation, read-out: control (at least one of mortality, anti-feedant effect, growth inhibition)
How it was run: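 Five first-instar larvae per disc were placed on dried, sprayed cotton leaf discs held on agar. Test solutions were aqueous, made from 10′000 ppm DMSO stocks. At day 3, control was counted when mortality, feeding deterrence or growth inhibition exceeded the untreated discs.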

COC(=O)N(C(=O)c1cc(-c2cnn(-c3c(C(F)(F)F)c(OS(=O)(=O)C(F)(C(F)(F)F)C(F)(F)F)nn3C)c2)ccc1Cl)C1(C#N)CC1 [Compound 52, [5-[4-[4-chloro-3-[(1-cyanocyclopropyl)-methoxycarbonyl-carbamoyl]phenyl]pyrazol-1-yl]-1-methyl-4-(trifluoromethyl)pyrazol-3-yl] 1,1,1,2,3,3,3-heptafluoropropane-2-sulfonate]
≥ 80%: mortality at 200 ppm (Tetranychus urticae) | mortality at 200 ppm (Thrips tabaci) | mortality at 200 ppm (Plutella xylostella) | mortality at 200 ppm (Myzus persicae) | mortality at 200 ppm (Euschistus heros) | mortality at 200 ppm (Diabrotica Balteata) | percent control (mortality, anti-feedant effect or growth inhibition) at 200 ppm (Spodoptera littoralis)
